According to ChEMBL document CHEMBL1153508, “Evaluation of hydrogen bonds of ecdysteroids in the ligand-receptor interactions using a protein modeling system” (Bioorg Med Chem, 2009):

The molecules below were run against T1, Ecdysone receptor (Drosophila melanogaster, UniProt P34021) (assay: Binding affinity to ecdysone receptor ligand binding domain in Drosophila melanogaster assessed as number of hydrogen bonds formed).
T1 sequence (P34021 whole entry): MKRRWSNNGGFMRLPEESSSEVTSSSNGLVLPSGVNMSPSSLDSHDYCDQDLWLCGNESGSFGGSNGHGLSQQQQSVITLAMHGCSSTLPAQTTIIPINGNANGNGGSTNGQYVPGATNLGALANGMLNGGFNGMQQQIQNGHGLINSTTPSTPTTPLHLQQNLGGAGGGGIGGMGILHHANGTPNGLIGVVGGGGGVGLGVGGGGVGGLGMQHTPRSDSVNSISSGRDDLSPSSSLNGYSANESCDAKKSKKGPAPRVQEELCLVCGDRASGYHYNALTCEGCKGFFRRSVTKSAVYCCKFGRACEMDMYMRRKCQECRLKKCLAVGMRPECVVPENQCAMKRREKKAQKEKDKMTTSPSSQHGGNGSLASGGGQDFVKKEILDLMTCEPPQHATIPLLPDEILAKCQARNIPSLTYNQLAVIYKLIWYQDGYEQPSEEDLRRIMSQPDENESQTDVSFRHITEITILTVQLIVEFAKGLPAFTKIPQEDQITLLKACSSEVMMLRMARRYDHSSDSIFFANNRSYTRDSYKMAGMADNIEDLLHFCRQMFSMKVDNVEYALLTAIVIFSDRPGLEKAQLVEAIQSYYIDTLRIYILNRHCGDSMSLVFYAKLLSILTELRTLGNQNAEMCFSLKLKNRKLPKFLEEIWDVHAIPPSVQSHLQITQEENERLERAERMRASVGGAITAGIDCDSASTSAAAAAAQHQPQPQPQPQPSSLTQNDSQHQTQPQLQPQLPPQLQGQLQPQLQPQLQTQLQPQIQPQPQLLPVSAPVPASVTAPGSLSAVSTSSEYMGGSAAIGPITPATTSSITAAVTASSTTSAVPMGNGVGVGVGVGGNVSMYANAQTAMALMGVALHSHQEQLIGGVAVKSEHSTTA

First: CC(C)CC[C@@H](O)[C@](C)(O)[C@H]1CC[C@H]2[C@@H]3CC[C@H]4CCCC[C@]4(C)[C@H]3CC[C@]12C
Second: CC(C)CC[C@@H](O)[C@](C)(O)[C@H]1CC[C@H]2[C@@H]3CC[C@H]4C[C@@H](O)CC[C@]4(C)[C@H]3CC[C@]12C
The IC50 of the first is higher: > 245000 nM for the first, 41700 nM for the second. The second is the more potent here.

Going from `CC(C)CC[C@@H](O)[C@](C)(O)[C@H]1CC[C@H]2[C@@H]3CC(=O)[C@@H]4C[C@H](O)CC[C@]4(C)[C@H]3CC[C@]12C` to `CC(C)CC[C@@H](O)[C@](C)(O)[C@H]1CC[C@H]2[C@@H]3CC(=O)[C@H]4C[C@H](O)CC[C@]4(C)[C@H]3CC[C@]12C`, the IC50 falls from 89100 nM to 794 nM (110-fold). The second is the more potent here.

`CC(C)CC[C@@H](O)[C@](C)(O)[C@H]1CC[C@H]2[C@@H]3C[C@@H](O)[C@H]4C[C@@H](O)CC[C@]4(C)[C@H]3CC[C@]12C` and `CC(C)CC[C@@H](O)[C@](C)(O)[C@H]1CC[C@H]2[C@@H]3C[C@H](O)[C@H]4C[C@@H](O)CC[C@]4(C)[C@H]3CC[C@]12C` cannot be ordered by IC50: > 245000 nM for the first, > 245000 nM for the second.

First: CC(C)CC[C@@H](O)[C@](C)(O)[C@H]1CC[C@H]2[C@@H]3CC(=O)[C@@H]4C[C@@H](O)[C@@H](O)C[C@]4(C)[C@H]3CC[C@]12C
Second: CC(C)CC[C@@H](O)[C@](C)(O)[C@H]1CC[C@H]2[C@@H]3CC(=O)[C@H]4C[C@@H](O)[C@@H](O)C[C@]4(C)[C@H]3CC[C@]12C
The IC50 of the first is 250-fold lower: 58.9 nM for the first, 14500 nM for the second. The first is the more potent here.

First: CC(C)CC[C@@H](O)[C@](C)(O)[C@H]1CC[C@H]2[C@@H]3CC=C4CCCC[C@]4(C)[C@H]3CC[C@]12C
Second: CC(C)CC[C@@H](O)[C@](C)(O)[C@H]1CC[C@H]2[C@@H]3CC=C4C[C@@H](O)CC[C@]4(C)[C@H]3CC[C@]12C
The IC50 of the first is higher: > 245000 nM for the first, 41700 nM for the second.

Going from `CC(C)CC[C@@H](O)[C@](C)(O)[C@H]1CC[C@H]2[C@@H]3CC(=O)[C@H]4C[C@@H](O)CC[C@]4(C)[C@H]3CC[C@]12C` to `CC(C)CC[C@H](O)[C@](C)(O)[C@H]1CC[C@H]2[C@@H]3CC(=O)[C@H]4C[C@H](O)[C@H](O)C[C@]4(C)[C@H]3CC[C@]12C`, the IC50 rises from 9550 nM to 38900 nM (4.1-fold).

First: CC(C)CC[C@@H](O)[C@](C)(O)[C@H]1CC[C@H]2[C@@H]3CC(=O)[C@H]4C[C@H](O)[C@H](O)C[C@]4(C)[C@H]3CC[C@]12C
Second: CC(C)CC[C@@H](O)[C@](C)(O)[C@H]1CC[C@@]2(O)C3=CC(=O)[C@@H]4C[C@@H](O)[C@@H](O)C[C@]4(C)[C@H]3CC[C@]12C [PONASTERONE A]
The IC50 of the first is 250-fold higher: 324 nM for the first, 1.29 nM for the second. The second is the more potent here.

Going from `CC(C)(O)CC[C@@H](O)[C@](C)(O)[C@H]1CC[C@@]2(O)C3=CC(=O)[C@@H]4C[C@@H](O)[C@@H](O)C[C@]4(C)[C@H]3CC[C@]12C` [20-HYDROXYECDYSONE] to `C[C@H](C[C@@H](O)[C@](C)(O)[C@H]1CC[C@@]2(O)C3=CC(=O)[C@@H]4C[C@@H](O)[C@@H](O)C[C@]4(C)[C@H]3CC[C@]12C)C(C)(C)O` [MAKISTERONE A], the IC50 rises from 45.7 nM to 112 nM (2.5-fold).

`C[C@@H]1C(=O)O[C@H](C)[C@H]1C[C@@H](O)[C@](C)(O)[C@H]1CC[C@@]2(O)C3=CC(=O)[C@@H]4C[C@@H](O)[C@@H](O)C[C@]4(C)[C@H]3CC[C@]12C` [CYASTERONE] and `CC(CO)CC[C@@H](O)[C@](C)(O)[C@H]1CC[C@@]2(O)C3=CC(=O)[C@@H]4C[C@@H](O)[C@@H](O)C[C@]4(C)[C@H]3CC[C@]12C` (some centres undefined) [INOKOSTERONE] are within 1.5-fold of each other in IC50: 61.7 nM for the first, 91.2 nM for the second.

Work on `C[C@H]([C@H](O)CCC(C)(C)O)[C@H]1CC[C@@]2(O)C3=CC(=O)[C@@H]4C[C@@H](O)[C@@H](O)C[C@]4(C)[C@H]3CC[C@]12C` [ECDYSONE] yielded an IC50 of 2570 nM.
